Assay results published in patent publication US20160311886A1, “Constructs Binding to Phosphatidylserine and Their Use in Disease Treatment and Imaging” (Board of Regents, The University of Texas System, priority 2005, published 2016).

Key:
ABAE cells = assay: Induction of PS exposure, 125I-annexin V binding; assay type: cell-based, bovine
Procedure: (§1) All reagents were diluted in medium containing 10% serum and incubated with the cells at 37° C. for 24 h.
(§2) To study the effect of hypoxia, cells were seeded on 24 well plates and were incubated in a humidified normoxic atmosphere (21% O2, 5% CO2) for 48 h before being transferred to a humidified hypoxic atmosphere (1% O2, 5% CO2, 94% N2) in a sealed chamber (Billups Rothenberg Inc., Del Mar, Ca). Cells were incubated in a hypoxic chamber for 24 h at 37° C. and were then returned to a normoxic environment for 4 h at 37° C. The cells were compared to a parallel culture from an identical passage, seeded on the same day and maintained entirely under normoxic conditions. In some studies, IL-1α (10 ng/ml) and TNFα (20 ng/ml) were added to the medium before transfer to the hypoxic chamber.
(§3) After treatment with the reagents described above, treated and control cells were incubated with 7.1 pmoles of ^125I-labeled annexin V (200 μl/well) in the binding buffer. After 2 h incubation at room temperature, cells were washed extensively and dissolved in 0.5 M of NaOH. The entire volume of 0.5 ml was transferred to plastic tubes and counted in a gamma counter. Non-specific binding was determined in the presence of 5 mM EDTA and was subtracted from experimental values. The results were expressed as net pmoles of cell-bound annexin V, normalized per 1×10^6 cells.
(§4) Maximal binding of annexin V was determined on cells simultaneously treated with actinomycin D and TNFα (50 ng/ml of each component). As has been previously reported, these agents cause apoptosis and PS exposure in 90-100% of endothelial cells (Lucas et al., 1998). Basal binding of ^125I-annexin V to untreated cells was determined in the presence of medium with 10% serum. The amount of ^125I-annexin V that bound to the untreated cultures was subtracted from that in the treated cultures. Exposure of PS was calculated according to the following formula: cell-bound annexin V (pmoles) under experimental conditions divided by maximal annexin V binding (pmoles), multiplied by 100. Each study was performed in duplicate and was performed at least three times. Mean values were calculated. The SE of the mean values from three separate experiments was less than 5%.

bEnd.3 cells = assay: Induction of PS exposure, 125I-annexin V binding; assay type: cell-based, mouse
Procedure: as §1, §2, §3, §4

[1] = test system: drug-resistant breast tumors; assay: 3G4 and cisplatin against drug-resistant breast tumors; assay type: in vivo, mouse; conditions: treated after day 20
Text: Mice were inoculated with drug-resistant breast tumors and treated after day 20.

[2] = test system: ABAE cells with exposed PS; assay: Live-cell binding assay on LPC-treated endothelial cells; assay type: cell-based, bovine
Procedure: Adult bovine aortic endothelial (ABAE) cells were maintained in DMEM supplemented with 10% FBS and 2 mM L-glutamine. ABAE cells were removed from subconfluent cultures by brief exposure to 0.25% trypsin/0.02% EDTA, and 8-well chamber slides were seeded with 2×10^4 cells/well. Following overnight culture, cells were washed gently with PBS and treated with 200 μM lysophosphatidylcholine (LPC) to induce PS exposure.
PS exposure was determined by immunofluorescence staining. Cells were washed thoroughly in PBS, fixed in 4% paraformaldehyde (w/v), and incubated with a biotin-conjugated anti-mouse secondary antibody. Next, cells were incubated with FITC-conjugated streptavidin (Jackson Immunoresearch) to detect antibody binding. Cells were then permeablized with 0.1% Triton-X100 in PBS and counterstained with Texas Red-conjugated phalloidin (Molecular Probes, Eugene, Oreg.), and 4′, 6-diamidino-2-phenylindole (DAPI; Molecular Probes). Images were captured using a Coolsnap digital camera (Photometrics, Tucson, Ariz.) mounted on a Nikon microscope and processed with MetaVue software (Universal Imaging Corporation, Downingtown, Pa.).
The area of antibody binding was determined using MetaVue image analysis software, which is able to quantify the number of illuminated pixels in an image. Images of FITC fluorescence were used to quantify antibody binding. Corresponding images of DAPI fluorescence were used to normalize the FITC images for the number of cells present in the field. A small FITC/DAPI ratio indicates a small antibody binding area, whereas a large FITC/DAPI ratio indicates a large binding area. The FITC/DAPI ratios were used to determine increases or decreases in antibody binding area relative to a basal amount of antibody binding under the selected conditions. Five images at 200× magnification were used for each analysis. Data are presented as average relative FITC/DAPI ratios with error bars representing the standard deviation.
Cells were then washed, fixed, and stained with fluorescent markers to visualize binding of antibody to the cell surface.

[3] = Serum dependence of binding to PS
Procedure: The serum dependence or independence of the antibodies is also set forth in Table 2 (see also, Example XXX).
The 1B9, 2G7 and 7C5 antibodies behave essentially the same. These antibodies recognize only PS and require serum or serum proteins for binding to PS. The binding of 1B9, 2G7 and 7C5 to various phospholipids in the present example was assayed only in the presence of 10% bovine serum, whereas binding of the other antibodies was tested either in the absence or in the presence of serum.

[4] = Phospholipid specificity ELISA; assay type: binding
Procedure: The specificity of the antibodies was determined by ELISA using plates coated with the following phospholipids: PS, phosphatidylserine; PE, phosphatidylethanolamine; PI, phosphatidylinositol; PA, phosphatidic acid; PG, phosphatidylglycerol; PC, phosphatidylcholine; CL, cardiolipin; and SM, sphingomyelin.

[5] = Binding of ch3G4 and 2aG4 to phospholipid-coated ELISA plates; conditions: vs 3G4
WiDr (colon carcinoma) = assay: WiDr colon carcinoma model; assay type: in vivo, mouse; conditions: 100 μg 3×/week from day 5; preliminary study
Procedure: Treatment was started on day 5, when the tumors were small (10 mice per group). 100 μg of each antibody was injected 3×/week and tumor growth monitored.

[6] = Hypoxia (1% O2) + TNFα 20 ng/ml
[7] = Hypoxia (1% O2) + IL-1α 10 ng/ml

Scatter factor: Recombinant hepatocyte growth factor (HGF or scatter factor)
125I-Annexin V (% of Max binding) (ABAE cells; 40 ng/ml, 24 h): 0 % of Max binding | 125I-Annexin V (% of Max binding) (bEnd.3 cells; 40 ng/ml, 24 h): 0 % of Max binding

N.N.[Cl][Pt][Cl] [cisplatin, reference compound]
anti-tumor response [1]: tumor growth was slowed

Thrombin
125I-Annexin V (% of Max binding) (ABAE cells; 50 nM, 24 h): 8.8 % of Max binding | 125I-Annexin V (% of Max binding) (bEnd.3 cells; 50 nM, 24 h): 17.4 % of Max binding

TNFα
125I-Annexin V (% of Max binding) (ABAE cells; 20 ng/ml, 24 h): 7.4 % of Max binding | 125I-Annexin V (% of Max binding) (ABAE cells; [6]): 33.0 % of Max binding | 125I-Annexin V (% of Max binding) (bEnd.3 cells; 20 ng/ml, 24 h): 13.7 % of Max binding | 125I-Annexin V (% of Max binding) (bEnd.3 cells; [6]): 36.0 % of Max binding

VEGF
125I-Annexin V (% of Max binding) (ABAE cells; 20 ng/ml, 24 h): 0 % of Max binding | 125I-Annexin V (% of Max binding) (bEnd.3 cells; 20 ng/ml, 24 h): 0 % of Max binding

IL-10: interleukin-10
125I-Annexin V (% of Max binding) (ABAE cells; 20 ng/ml, 24 h): 0 % of Max binding | 125I-Annexin V (% of Max binding) (bEnd.3 cells; 20 ng/ml, 24 h): 0 % of Max binding

GM-CSF: cytokine tested on endothelial cells
binding of 125I-annexin V above the basal level for untreated cells (ABAE cells; ABAE and bEnd.3 cells): did not increase binding

IL-6: interleukin-6
125I-Annexin V (% of Max binding) (ABAE cells; 20 ng/ml, 24 h): 0 % of Max binding | 125I-Annexin V (% of Max binding) (bEnd.3 cells; 20 ng/ml, 24 h): 0 % of Max binding

TGF β1: growth factor tested on endothelial cells
125I-Annexin V (% of Max binding) (ABAE cells; 20 ng/ml, 24 h): 0 % of Max binding | 125I-Annexin V (% of Max binding) (bEnd.3 cells; 20 ng/ml, 24 h): 0 % of Max binding

FGF-2: human fibroblast growth factor-2
125I-Annexin V (% of Max binding) (ABAE cells; 20 ng/ml, 24 h): 0 % of Max binding | 125I-Annexin V (% of Max binding) (bEnd.3 cells; 20 ng/ml, 24 h): 0 % of Max binding

IL-8: interleukin-8
125I-Annexin V (% of Max binding) (ABAE cells; 20 ng/ml, 24 h): 0 % of Max binding | 125I-Annexin V (% of Max binding) (bEnd.3 cells; 20 ng/ml, 24 h): 0 % of Max binding

B1: IL-1α: Recombinant murine interleukin-1 alpha (protein, UniProt P01582 115-270, looked up)
Interleukin-1 alpha: SAPYTYQSDLRYKLMKLVRQKFVMNDSLNQTIYQDVDKHYLSTTWLNDLQQEVKFDMYAYSSGGDDSKYPVTLKISDSQLFVSAQGEDQPVLLKELPETPKLITGSETDLIFFWKSINSKNYFTSAAYPELFIATKEQSRVHLARGLPSMTDFQIS
125I-Annexin V (% of Max binding) (ABAE cells; 10 ng/ml, 24 h): 6.4 % of Max binding | 125I-Annexin V (% of Max binding) (ABAE cells; [7]): 26.0 % of Max binding | 125I-Annexin V (% of Max binding) (bEnd.3 cells; 10 ng/ml, 24 h): 7.5 % of Max binding | 125I-Annexin V (% of Max binding) (bEnd.3 cells; [7]): 31.0 % of Max binding

B2: 3G4 Fab′: Monovalent fragment of 3G4 (antibody)
VH: EVQLQQSGPELEKPGASVKLSCKASGYSFTGYNMNWVKQSHGKSLEWIGHIDPYYGDTSYNQKFRGKATLTVDKSSSTAYMQLKSLTSEDSAVYYCVKGGYYGHWYFDVWGAGTTVTVSSATTTAPSVYPLVP
light: DIQMTQSPSSLSASLGERVSLTCRASQDIGSSLNWLQQGPDGTIKRLIYATSSLDSGVPKRFSGSRSGSDYSLTISSLESEDFVDYYCLQYVSSPPTFGAGTKLELKRADAAPTVSIFPPSSEQLTSGGASVVCFLNNFYPKDINVKWKIDGSERQNGVLNSWTDQDSKDSTYSMSSTLTLTKDEYERHNSYTCEATHKTSTSPIVKSFNRNEC
inhibition of ch3G4/β2GPI binding ([2]; 20 nM ch3G4, 40 nM hβ2GPI): inhibited ch3G4/β2GPI binding to LPC-treated ABAE cells in a concentration-dependent manner | binding to LPC-treated ABAE cells ([2]; 20 nM, DMEM+10% FBS): negligible | binding to ABAE cells ([2]; 2 μM, 40 nM hβ2GPI): No binding

B3: IL-1β: Recombinant murine interleukin-1 beta (protein, UniProt P10749 118-269, looked up)
Interleukin-1 beta: VPIRQLHYRLRDEQQKSLVLSDPYELKALHLNGQNINQQVIFSMSFVQGEPSNDKIPVALGLKGKNLYLSCVMKDGTPTLQLESVDPKQYPKKKMEKRFVFNKIEVKSKVEFESAEFPNWYISTSQAEHKPVFLGNNSGQDIIDFTMESVSS
125I-Annexin V (% of Max binding) (ABAE cells; 10 ng/ml, 24 h): 5.8 % of Max binding | 125I-Annexin V (% of Max binding) (bEnd.3 cells; 10 ng/ml, 24 h): 5.5 % of Max binding

B4: 2aG4: Recombinant mouse IgG2a isotype of 3G4; SEQ ID NO:10 and 11 (antibody, listed as Mus musculus)
heavy: MGWTWIFILILSVTTGVHSEVQLQQSGPELEKPGASVKLSCKASGYSFTGYNMNWVKQSHGKSLEWIGHIDPYYGDTSYNQKFRGKATLTVDKSSSTAYMQLKSLTSEDSAVYYCVKGGYYGHWYFDVWGAGTTVTVSSAKTTAPSVYPLAPVCGDTTGSSVTLGCLVKGYFPEPVTLTWNSGSLSSGVHTFPAVLQSDLYTLSSSVTVTSSTWPSQSITCNVAHPASSTKVDKKEPRGPTIKPCPPCKCPAPNLLGGPSVFIFPPKIKDVLMISLSPIVTCVVVDVSEDDPDVQISWFVNNVEVHTAQTQTHREDYNSTLRVVSALPIQHQDWMSGKEFKCKVNNKDLPAPIERTISKPKGSVRAPQVYVLPPPEEEMTKKQVTLTCMVTDFMPEDIYVEWTNNGKTELNYKNTEPVLDSDGSYFMYSKLRVEKKNWVERNSYSCSVVHEGLHNHHTTKSFSRTPGK
light: MDMRAPAQILGFLLLLFPGTRCDIQMTQSPSSLSASLGERVSLTCRASQDIGSSLNWLQQGPDGTIKRLIYATSSLDSGVPKRFSGSRSGSDYSLTISSLESEDFVDYYCLQYVSSPPTFGAGTKLELKRADAAPTVSIFPPSSEQLTSGGASVVCFLNNFYPKDINVKWKIDGSERQNGVLNSWTDQDSKDSTYSMSSTLTLTKDEYERHNSYTCEATHKTSTSPIVKSFNRNEC
Serum cofactor? [3]: Yes | Relative Strength of Reactivity on ELISA [4]: PS = PA = PI = PG = CL >> PE | affinity and specificity in PS-ELISA [5]: essentially the same as for 3G4 | tumor growth (WiDr (colon carcinoma)): slowed tumor growth to essentially the same degree

B5: nicked hβ2GPI: hβ2GPI cleaved by plasmin at Lys317/Thr318; non-lipid binding form (protein)
chain: GRTCPKPDDLPFSTVVPLKTFYEPGEEITYSCKPGYVSRGGMRKFICPLTGLWPINTLKCTPRVCPFAGILENGAVRYTTFEYPNTISFSCNTGFYLNGADSAKCTEEGKWSPELPVCAPIICPPPSIPTFATLRVYKPSAGNNSLYRDTAVFECLPQHAMFGNDTITCTTHGNWTKLPECREVKCPFPSRPDNGFVNYPAKPTLYYKDKATFGCHDGYSLDGPEEIECTKLGNWSAMPSCKASCKLPVKKATVVYQGERVKIQEKFKNGMLHGDKVSFFCKNKEKKCSYTEDAQCIDGTIEVPKCFKEHSSLAFWKTDASDVKPC
mediation of ch3G4 binding to ABAE cells with exposed PS ([2]; 2 μg/ml, LPC): not able to mediate binding
